Experimental data from patent US20180186742A1, “PICOLINAMIDES AS FUNGICIDES” (Dow AgroSciences LLC, priority 2017, published 2018).
Read-outs that look alike come from different tables or passages of the source.

Experiments:
Format in all cases: in vivo
Zymoseptoria tritici = experiment: Leaf blotch of wheat (SEPTTR), disease control on wheat seedlings; conditions: low volume application at 121.5 g/H
Procedure, shortened: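 Z. tritici spores were inoculated onto wheat seedlings (Yuma, first leaf emerged) either before or after treatment. Treatment was an automated spray to run-off of acetone/Triton X-100 water solutions, or a track spray of EC formulations with 0.1% Trycol 5941. Plants were held in dew chambers at 20 °C and then a greenhouse at 20 °C. First-leaf severity (0–100%) was converted to percent control against untreated plants.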

Puccinia triticina = experiment: Wheat brown rust (PUCCRT), disease control on wheat seedlings; conditions: low volume application at 121.5 g/H
Procedure, shortened: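 Compounds in acetone, diluted with nine volumes of water containing 110 ppm Triton X-100, sprayed to run-off on first-leaf Yuma wheat seedlings; track-spray tests used EC formulations with 0.1% Trycol 5941. Puccinia triticina spores applied before or after treatment. Overnight dark dew room at 22° C, 100% humidity, then greenhouse at 24° C.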

Phakopsora pachyrhizi = experiment: Asian soybean rust (PHAKPA), disease control on soybean seedlings; conditions: High volume application at 25 ppm
Procedure, shortened: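 Two-week-old Williams 82 soybean seedlings were sprayed to run-off with compound in acetone/water (1:9) containing 0.011% Tween 20. Inoculation was 3 days before (curative) or 1 day after (protectant) treatment, followed by 24 h dark dew at 22 °C, 100% RH, then 23 °C; disease severity scored on sprayed leaves.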

[1] = 24 h, 1 Day Protectant, read-out: SEPTTR disease control, 1DP, LV activity
[2] = 72 h, 3 Day Curative, read-out: SEPTTR disease control, 3DC, LV activity
[3] = 24 h, 1 Day Protectant, read-out: PUCCRT disease control, 1DP, LV activity
[4] = 72 h, 3 Day Curative, read-out: PUCCRT disease control, 3DC, LV activity
[5] = 24 h, 1 Day Protectant, read-out: PHAKPA 1DP disease control rating
[6] = 72 h, 3 Day Curative, read-out: PHAKPA 3DC disease control rating
[7] = 24 h, 1 Day Protectant, wheat leaf blotch, read-out: SEPTTR 1DP disease control, LV activity
[8] = 72 h, 3 Day Curative, wheat leaf blotch, read-out: SEPTTR 3DC disease control, LV activity
[9] = 24 h, 1 Day Protectant, wheat brown rust, read-out: PUCCRT 1DP disease control, LV activity
[10] = 72 h, 3 Day Curative, wheat brown rust, read-out: PUCCRT 3DC disease control, LV activity

Row | SMILES | pest or weed control at 121.5 g/ha (Zymoseptoria tritici; [1]) [%] | pest or weed control at 121.5 g/ha (Zymoseptoria tritici; [2]) [%] | pest or weed control at 121.5 g/ha (Puccinia triticina; [3]) [%] | pest or weed control at 121.5 g/ha (Puccinia triticina; [4]) [%] | pest or weed control at 25 ppm (Phakopsora pachyrhizi; [5]) [%] | pest or weed control at 25 ppm (Phakopsora pachyrhizi; [6]) [%] | pest or weed control at 121.5 g/ha (Zymoseptoria tritici; [7]) [%] | pest or weed control at 121.5 g/ha (Zymoseptoria tritici; [8]) [%] | pest or weed control at 121.5 g/ha (Puccinia triticina; [9]) [%] | pest or weed control at 121.5 g/ha (Puccinia triticina; [10]) [%]
1 | COc1cc(F)ccc1[C@H](C1CCCC1)[C@H](C)OC(=O)[C@H](C)NC(=O)c1nccc(OC)c1OCOC(C)=O [Compound 235] | < 80 | < 80 | > 80 | < 80 | > 80 | < 80 | – | – | – | –
2 | COc1cc(F)ccc1[C@H](C1CCC1)[C@H](C)OC(=O)[C@H](C)NC(=O)c1nccc(OC)c1OCOC(C)=O [Compound 236] | < 80 | < 80 | < 80 | < 80 | > 80 | < 80 | – | – | – | –
3 | COc1cc(F)ccc1[C@H](C(C)C)[C@H](C)OC(=O)[C@H](C)NC(=O)c1nccc(OC)c1OCOC(C)=O [Compound 237] | < 80 | < 80 | > 80 | > 80 | > 80 | > 80 | – | – | – | –
4 | COCCC(=O)Oc1c(OC)ccnc1C(=O)N[C@@H](C)C(=O)O[C@@H](C)[C@H](c1ccc(F)cc1OC)C1CCC1 [Compound 238] | < 80 | < 80 | < 80 | < 80 | < 80 | < 80 | – | – | – | –
5 | COCCC(=O)Oc1c(OC)ccnc1C(=O)N[C@@H](C)C(=O)O[C@@H](C)[C@H](c1ccc(F)cc1OC)C(C)C [Compound 239] | > 80 | < 80 | > 80 | > 80 | > 80 | > 80 | – | – | – | –
6 | COc1ccnc(C(=O)N[C@@H](C)C(=O)O[C@@H](C)[C@@H](c2ccc(C)cc2C)C2CCC2)c1OCOC(C)=O [Compound 240] | < 80 | > 80 | > 80 | > 80 | > 80 | < 80 | – | – | – | –
7 | COc1ccnc(C(=O)N[C@@H](C)C(=O)O[C@@H](C)[C@@H](c2ccc(C)cc2C)C2CCC2)c1OC(C)=O [Compound 241] | < 0 | > 80 | < 80 | < 80 | < 80 | < 80 | – | – | – | –
8 | COc1ccnc(C(=O)N[C@@H](C)C(=O)O[C@@H](C)[C@H](c2ccc(Cl)cc2)C(C)C)c1OC(C)=O [Compound 242] | > 80 | > 80 | > 80 | > 80 | > 80 | < 80 | – | – | – | –
9 | COc1ccnc(C(=O)N[C@@H](C)C(=O)O[C@@H](C)[C@H](c2ccc(C)c(F)c2)C(C)C)c1OC(C)=O [Compound 243] | < 0 | < 80 | > 80 | < 80 | > 80 | < 80 | – | – | – | –
10 | COc1ccnc(C(=O)N[C@@H](C)C(=O)O[C@@H](C)[C@H](c2ccc(F)c(F)c2)C(C)C)c1OC(C)=O [Compound 244] | > 80 | < 80 | > 80 | > 80 | > 80 | < 80 | – | – | – | –
11 | COc1ccnc(C(=O)NCC(=O)O[C@@H](C)[C@H](c2ccc(F)cc2C)C(C)C)c1OC(C)=O [Compound 346] | < 80 | < 80 | > 80 | > 80 | > 80 | < 80 | – | – | – | –
12 | COc1ccnc(C(=O)N[C@H](C(=O)O[C@@H](C)[C@H](c2ccc(F)cc2C)C(C)C)C(C)C)c1OC(C)=O [Compound 347] | > 80 | > 80 | > 80 | < 80 | > 80 | > 80 | – | – | – | –
13 | CC[C@H](C)[C@H](NC(=O)c1nccc(OC)c1OC(C)=O)C(=O)O[C@@H](C)[C@H](c1ccc(F)cc1C)C(C)C [Compound 348] | < 80 | < 80 | > 80 | < 80 | > 80 | < 80 | – | – | – | –
14 | COc1ccnc(C(=O)N[C@@H](CC(C)C)C(=O)O[C@@H](C)[C@H](c2ccc(F)cc2C)C(C)C)c1OC(C)=O [Compound 349] | < 80 | < 80 | > 80 | < 80 | > 80 | < 80 | – | – | – | –
15 | COCCC(=O)Oc1c(OC)ccnc1C(=O)NCC(=O)O[C@@H](C)[C@H](c1ccc(F)cc1C)C(C)C [Compound 350] | < 80 | < 80 | > 80 | > 80 | > 80 | > 80 | – | – | – | –
16 | COCCC(=O)Oc1c(OC)ccnc1C(=O)N[C@H](C(=O)O[C@@H](C)[C@H](c1ccc(F)cc1C)C(C)C)C(C)C [Compound 351] | > 80 | < 80 | > 80 | < 80 | > 80 | < 80 | – | – | – | –
17 | CC[C@H](C)[C@H](NC(=O)c1nccc(OC)c1OC(=O)CCOC)C(=O)O[C@@H](C)[C@H](c1ccc(F)cc1C)C(C)C [Compound 352] | < 80 | < 80 | > 80 | < 80 | > 80 | < 80 | – | – | – | –
18 | COCCC(=O)Oc1c(OC)ccnc1C(=O)N[C@@H](CC(C)C)C(=O)O[C@@H](C)[C@H](c1ccc(F)cc1C)C(C)C [Compound 353] | < 80 | < 80 | < 80 | < 80 | > 80 | < 80 | – | – | – | –
19 | COc1ccnc(C(=O)N[C@@H](C)C(=O)O[C@@H](C)[C@H](c2cc(C)ccc2C)C(C)C)c1OC(C)=O [Compound 358] | < 80 | < 80 | > 80 | < 80 | > 80 | < 80 | – | – | – | –
20 | COc1ccnc(C(=O)N[C@@H](C)C(=O)O[C@@H](C)[C@H](c2ccccc2F)C(C)C)c1OC(C)=O [Compound 360] | < 80 | > 80 | > 80 | > 80 | > 80 | > 80 | – | – | – | –
21 | COc1ccnc(C(=O)N[C@@H](C)C(=O)O[C@@H](C)[C@H](c2cc(F)ccc2C)C(C)C)c1OC(C)=O [Compound 361] | < 80 | < 80 | > 80 | < 80 | > 80 | > 80 | – | – | – | –
22 | COc1ccnc(C(=O)N[C@@H](C)C(=O)O[C@@H](C)[C@H](c2ccc(C)cc2C)C(C)C)c1OC(C)=O [Compound 362] | > 80 | > 80 | > 80 | > 80 | > 80 | > 80 | – | – | – | –
23 | COc1ccnc(C(=O)N[C@@H](C)C(=O)O[C@@H](C)[C@H](c2ccc(F)cc2F)C(C)C)c1OC(C)=O [Compound 365] | – | – | – | – | > 80 | > 80 | > 80 | > 80 | > 80 | > 80
24 | COc1ccnc(C(=O)N[C@@H](C)C(=O)O[C@@H](C)[C@H](c2ccc(C)cc2F)C(C)C)c1OC(C)=O [Compound 366] | – | – | – | – | > 80 | < 80 | < 80 | < 80 | > 80 | > 80
